“And” between values parts separate entries of the source, which are not always exact repeats. Equal entries are not always repeated. Where two headings read alike, the source gives them in different places.
Assays:
[1] = target: T1, hNET (Homo sapiens, UniProt P23975); test: biochemical; assay type: binding
[2] = target: T1, hNET; settings: intact cells, 25°C
[3] = target: T1, hNET; settings: read-out: IC50 for inhibition of [^3H]NE uptake; ref Eshleman et al., 1999; cited from earlier work

T1 sequence (P23975 whole entry): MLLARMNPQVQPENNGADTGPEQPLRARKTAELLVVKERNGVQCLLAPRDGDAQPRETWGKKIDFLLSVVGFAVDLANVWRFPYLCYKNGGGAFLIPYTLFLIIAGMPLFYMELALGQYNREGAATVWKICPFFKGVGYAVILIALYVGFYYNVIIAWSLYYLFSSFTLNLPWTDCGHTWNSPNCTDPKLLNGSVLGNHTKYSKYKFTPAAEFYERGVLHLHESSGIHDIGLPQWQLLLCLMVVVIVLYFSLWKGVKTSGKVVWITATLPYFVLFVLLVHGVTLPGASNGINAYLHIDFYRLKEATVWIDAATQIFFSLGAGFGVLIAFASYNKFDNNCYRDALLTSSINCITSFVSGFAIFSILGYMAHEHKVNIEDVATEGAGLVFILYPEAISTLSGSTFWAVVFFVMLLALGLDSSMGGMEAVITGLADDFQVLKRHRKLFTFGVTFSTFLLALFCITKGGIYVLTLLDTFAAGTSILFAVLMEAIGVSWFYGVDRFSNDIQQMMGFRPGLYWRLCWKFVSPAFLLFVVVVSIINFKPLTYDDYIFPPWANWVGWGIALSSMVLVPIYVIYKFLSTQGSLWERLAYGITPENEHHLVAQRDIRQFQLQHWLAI

OC1(c2ccc(Cl)cc2)c2ccccc2C2=NCCN21 (stereo not shown) [mazindol]
Potency in inhibiting [^3H]CFT binding relative to [^3H]NE uptake (Ki ratio) [1]: weaker

COC(=O)[C@H]1[C@@H](c2ccc(F)cc2)C[C@@H]2CC[C@H]1N2C [CFT, 2β-carbomethoxy-3β-(4-fluorophenyl)-tropane]
Time to maximal [^3H]CFT binding [2]: 15 min | Time to maximal [^3H]CFT binding [1]: 15 min | Kd ([1]; Kd of CFT): 18 ± 5 nM | Kd ([1]; Kd of [^3H]CFT binding): 35.7 nM and 22.1 nM and 34.5 nM | IC50 [3]: 33.3 nM

CN1[C@@H]2CC[C@H]1C[C@@H](OC(c1ccccc1)c1ccccc1)C2 [benztropine]
Potency in inhibiting [^3H]CFT binding relative to [^3H]NE uptake (Ki ratio) [1]: equipotent

— publication PMC3221803 (Journal of neuroscience methods, 2011)
